Results from ChEMBL document CHEMBL1201862, “PubChem BioAssay data set” (2004).
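Grown in 96-well plates, cells were treated for 48 hours with each compound at five concentrations. Insufficient inhibition: endpoint recorded as highest concentration tested. The concentration for 50% growth inhibition is given as GI50.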 Activity calls are given as the source filed them. Cut-off read from the data, not from the text of the source: active = GI50 up to about 1.1 µM and inactive = higher.

Key:
Experiment in all cases: inhibition of tumour cell growth, NCI panel, 48 h
ACHN = system: ACHN
CAKI-1 = system: CAKI-1
HCC 2998 = system: HCC 2998
HL-60 = system: HL-60
HOP-92 = system: HOP-92
K562 = system: K562
KM12 = system: KM12
M14 = system: M14
NCI-H23 = system: NCI-H23
OVCAR-4 = system: OVCAR-4
RXF 393 = system: RXF 393
SF-268 = system: SF-268
SK-OV-3 = system: SK-OV-3
SN12C = system: SN12C
SNB-75 = system: SNB-75
U-251 = system: U-251
UO-31 = system: UO-31
HCT-15 = system: HCT-15
MDA-MB-435 = system: MDA-MB-435
NCI/ADR-RES = system: NCI/ADR-RES

Structure (SMILES)	GI50 (ACHN)	GI50 (CAKI-1)	GI50 (HCC 2998)	GI50 (HL-60)	GI50 (HOP-92)	GI50 (K562)	GI50 (KM12)	GI50 (M14)	GI50 (NCI-H23)	GI50 (OVCAR-4)	GI50 (RXF 393)	GI50 (SF-268)	GI50 (SK-OV-3)	GI50 (SN12C)	GI50 (SNB-75)	GI50 (U-251)	GI50 (UO-31)	GI50 (HCT-15) [µM]	GI50 (MDA-MB-435)	GI50 (NCI/ADR-RES)
O=[N+]([O-])C1Cc2ccccc2OC1c1ccccc1 (stereo not drawn)	66.7 µM (inactive)	24.1 µM (inactive)	> 100 µM (inactive)	39.4 µM (inactive)	83.2 µM (inactive)	26.8 µM (inactive)	> 100 µM (inactive)	> 100 µM (inactive)	92.9 µM (inactive)	> 100 µM (inactive)	21.8 µM (inactive)	36.1 µM (inactive)	96.6 µM (inactive)	21.7 µM (inactive)	19.9 µM (inactive)	40.6 µM (inactive)	> 100 µM (inactive)			
CN(C)/C=N\c1nc(=O)n(C2CCC(CO)O2)cc1F (stereo not drawn)	> 100 µM (inactive)	> 100 µM (inactive)	96.6 µM (inactive)	> 100 µM (inactive)	> 100 µM (inactive)	> 100 µM (inactive)	> 100 µM (inactive)	> 100 µM (inactive)	> 100 µM (inactive)	> 100 µM (inactive)	> 100 µM (inactive)	> 100 µM (inactive)	> 100 µM (inactive)	> 100 µM (inactive)	> 100 µM (inactive)	> 100 µM (inactive)	> 100 µM (inactive)	> 100		
COC(=O)C(C(=O)C(=O)Nc1ccc([N+](=O)[O-])cc1)c1nc2cc(C)c(C)cc2nc1O (stereo not drawn)	> 100 µM (inactive)	> 100 µM (inactive)	81.3 µM (inactive)	> 100 µM (inactive)	> 100 µM (inactive)	> 100 µM (inactive)	> 100 µM (inactive)	> 100 µM (inactive)	> 100 µM (inactive)	> 100 µM (inactive)	> 100 µM (inactive)	> 100 µM (inactive)	> 100 µM (inactive)	> 100 µM (inactive)	> 100 µM (inactive)	> 100 µM (inactive)	> 100 µM (inactive)	> 100		
CCCCCCCCCC1CC(=O)OC2=C1C(=O)CCC2 (stereo not drawn)	> 100 µM (inactive)	> 100 µM (inactive)	> 100 µM (inactive)	> 100 µM (inactive)	> 100 µM (inactive)	> 100 µM (inactive)	> 100 µM (inactive)	> 100 µM (inactive)	> 100 µM (inactive)	> 100 µM (inactive)	> 100 µM (inactive)	> 100 µM (inactive)	> 100 µM (inactive)	> 100 µM (inactive)	> 100 µM (inactive)	> 100 µM (inactive)	> 100 µM (inactive)			
COC(=O)C1C(C(=O)OC)C2(OC(c3ccc(Cl)cc3)=CC2=O)C12OC(c1ccc(Cl)cc1)=CC2=O (stereo not drawn)	19.9 µM (inactive)	22 µM (inactive)	18.3 µM (inactive)	2.81 µM (inactive)	18.6 µM (inactive)	19.3 µM (inactive)		19.1 µM (inactive)	20.8 µM (inactive)	19.9 µM (inactive)	17.5 µM (inactive)	24.5 µM (inactive)	71.1 µM (inactive)	20.5 µM (inactive)		32.1 µM (inactive)	16.6 µM (inactive)	16.4	22.5 µM (inactive)	
COC(=O)C1=C(c2ccc3c(c2)OCO3)OC(c2cc(OC)c(OC)c(OC)c2)C1 (stereo not drawn)	6.98 µM (inactive)	2.12 µM (inactive)	5.77 µM (inactive)		5.75 µM (inactive)	0.883 µM (active)		3.53 µM (inactive)	3.21 µM (inactive)	4.83 µM (inactive)	2.81 µM (inactive)	31.6 µM (inactive)	2.28 µM (inactive)	4.5 µM (inactive)	2.72 µM (inactive)	2.34 µM (inactive)	8.26 µM (inactive)	0.664		
CCN(CC)CCC1CCCCN1CC(=O)N1c2ccccc2NC(=O)c2ccccc21 (stereo not drawn)	> 100 µM (inactive)	> 100 µM (inactive)	> 100 µM (inactive)	> 100 µM (inactive)	> 100 µM (inactive)	> 100 µM (inactive)	> 100 µM (inactive)	> 100 µM (inactive)	> 100 µM (inactive)	> 100 µM (inactive)	> 100 µM (inactive)	> 100 µM (inactive)	> 100 µM (inactive)	> 100 µM (inactive)	6.11 µM (inactive)	> 100 µM (inactive)	> 100 µM (inactive)	> 100	> 100 µM (inactive)	
COc1ccc(CN=C(N)N)c2ccccc12	35.6 µM (inactive)	20.7 µM (inactive)		23.8 µM (inactive)			25.5 µM (inactive)	37.1 µM (inactive)	24.3 µM (inactive)		33.7 µM (inactive)	12.1 µM (inactive)	34.8 µM (inactive)	14.9 µM (inactive)	20.5 µM (inactive)	16.4 µM (inactive)	23.5 µM (inactive)	> 100		> 100 µM (inactive)
Cc1nnc2n(c1=O)CCCN2C	> 100 µM (inactive)		> 100 µM (inactive)	> 100 µM (inactive)	> 100 µM (inactive)	> 100 µM (inactive)	> 100 µM (inactive)	> 100 µM (inactive)	> 100 µM (inactive)	> 100 µM (inactive)	> 100 µM (inactive)	> 100 µM (inactive)	> 100 µM (inactive)	> 100 µM (inactive)	> 100 µM (inactive)	> 100 µM (inactive)	> 100 µM (inactive)	> 100	> 100 µM (inactive)	
c1csc(-c2cc(-c3cccs3)c(-c3ccsc3)s2)c1	> 100 µM (inactive)	> 100 µM (inactive)	34.2 µM (inactive)	> 100 µM (inactive)		> 100 µM (inactive)	55.5 µM (inactive)	> 100 µM (inactive)	> 100 µM (inactive)	> 100 µM (inactive)		> 100 µM (inactive)	> 100 µM (inactive)	56.8 µM (inactive)	> 100 µM (inactive)	> 100 µM (inactive)	> 100 µM (inactive)	19.2	> 100 µM (inactive)	> 100 µM (inactive)
Nc1nc(N)c2nc(CN(C=O)c3ccc(C(=O)O)cc3)cnc2n1	3.94 µM (inactive)	> 28.2 µM (inactive)	> 100 µM (inactive)	18.8 µM (inactive)	> 100 µM (inactive)	1.6 µM (inactive)	6.64 µM (inactive)	7.43 µM (inactive)	20 µM (inactive)	> 100 µM (inactive)	> 100 µM (inactive)	9.68 µM (inactive)	> 30.1 µM (inactive)	52.6 µM (inactive)	> 52.1 µM (inactive)	> 93.5 µM (inactive)	> 22.3 µM (inactive)	7.14	17.9 µM (inactive)	
O=[N+]([O-])c1ccc2nc3n(c2c1)C(c1c(F)cccc1F)SC3 (stereo not drawn)	> 100 µM (inactive)					> 10 µM (inactive)	> 100 µM (inactive)		> 100 µM (inactive)				> 100 µM (inactive)	> 100 µM (inactive)		> 100 µM (inactive)				> 100 µM (inactive)
O=C1C(Br)=C(c2ccccc2)C(c2ccccc2)=C1c1ccccc1	2.55 µM (inactive)	2.44 µM (inactive)	6.05 µM (inactive)	0.67 µM (active)	1.69 µM (inactive)	1.61 µM (inactive)	5.94 µM (inactive)	2.15 µM (inactive)	3.64 µM (inactive)	1.99 µM (inactive)	1.99 µM (inactive)	3.44 µM (inactive)	15.9 µM (inactive)	1.95 µM (inactive)	3.63 µM (inactive)	3.36 µM (inactive)	5.5 µM (inactive)	1.76	3.82 µM (inactive)	
COc1c2cc(C(C)(C)C)cc1CSCc1cc(C(C)(C)C)cc(c1OC)CCCCC2	31.8 µM (inactive)		29.6 µM (inactive)	> 50 µM (inactive)		> 50 µM (inactive)	> 50 µM (inactive)	46.7 µM (inactive)	36.7 µM (inactive)			46.2 µM (inactive)	> 50 µM (inactive)	> 50 µM (inactive)	> 50 µM (inactive)	27 µM (inactive)	20.7 µM (inactive)	> 50	> 50 µM (inactive)	> 50 µM (inactive)
NC(=O)C#CC#CC#CCO	1.34 µM (inactive)	1.92 µM (inactive)	1.7 µM (inactive)	1.26 µM (inactive)	2.28 µM (inactive)	2.04 µM (inactive)	3.31 µM (inactive)	1.98 µM (inactive)	2.12 µM (inactive)	1.83 µM (inactive)	2.09 µM (inactive)	2.21 µM (inactive)	12.8 µM (inactive)	1.96 µM (inactive)	1.82 µM (inactive)	2 µM (inactive)	1.95 µM (inactive)	1.8		
CCN(CC)CCC1CCCCN1CC(=O)N1c2ccccc2NC(=O)CC1C (stereo not drawn)	> 100 µM (inactive)	> 100 µM (inactive)	> 100 µM (inactive)	> 100 µM (inactive)	> 100 µM (inactive)	> 100 µM (inactive)	> 100 µM (inactive)	> 100 µM (inactive)	> 100 µM (inactive)	> 100 µM (inactive)	> 100 µM (inactive)	> 100 µM (inactive)	> 100 µM (inactive)	> 100 µM (inactive)	0.0933 µM (active)	> 100 µM (inactive)	> 100 µM (inactive)	> 100	> 100 µM (inactive)	
[N-]=[N+]=NC1C2CC3C4CC5CC3[C@H](C2)C(C5)C41 (stereo partly drawn)	> 100 µM (inactive)	> 100 µM (inactive)	> 100 µM (inactive)		> 100 µM (inactive)	> 100 µM (inactive)	> 100 µM (inactive)	> 100 µM (inactive)	> 100 µM (inactive)	> 100 µM (inactive)	> 100 µM (inactive)	> 100 µM (inactive)	> 100 µM (inactive)	> 100 µM (inactive)	> 100 µM (inactive)	> 100 µM (inactive)	> 100 µM (inactive)			
